Data reported in PubChem BioAssay (NCI).
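Five compound concentrations were applied to cells in 96-well plates for 48 hours; endpoints were derived by simple linear interpolation of the resulting dose-response curve. The concentration for 50% growth inhibition is given as GI50. TGI: total growth inhibition.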

Experiments:
Assay in all cases: growth of human tumour cells (NCI), 48 h
SK-MEL-28 melanoma = system: SK-MEL-28 melanoma
U251 CNS = system: U251 CNS
BT-549 breast = system: BT-549 breast
UACC-257 melanoma = system: UACC-257 melanoma
KM12 colon = system: KM12 colon
UO-31 renal = system: UO-31 renal
T-47D breast = system: T-47D breast
RPMI-8226 leukemia = system: RPMI-8226 leukemia
DU-145 prostate = system: DU-145 prostate
MOLT-4 leukemia = system: MOLT-4 leukemia
786-0 renal = system: 786-0 renal
SK-MEL-2 melanoma = system: SK-MEL-2 melanoma
NCI-H522 lung = system: NCI-H522 lung
SK-MEL-5 melanoma = system: SK-MEL-5 melanoma
NCI-H460 lung = system: NCI-H460 lung
LOX IMVI melanoma = system: LOX IMVI melanoma
M14 melanoma = system: M14 melanoma
SW-620 colon = system: SW-620 colon
OVCAR-8 ovarian = system: OVCAR-8 ovarian
OVCAR-3 ovarian = system: OVCAR-3 ovarian
HL-60(TB) leukemia = system: HL-60(TB) leukemia
NCI-H23 lung = system: NCI-H23 lung
SF-295 CNS = system: SF-295 CNS
SNB-19 CNS = system: SNB-19 CNS
UACC-62 melanoma = system: UACC-62 melanoma
ACHN renal = system: ACHN renal
MDA-MB-435 = system: MDA-MB-435
SR leukemia = system: SR leukemia
HCT-15 colon = system: HCT-15 colon
CAKI-1 renal = system: CAKI-1 renal
A549 NSCLC = system: A549 NSCLC
HS 578T breast = system: HS 578T breast
EKVX NSCLC = system: EKVX NSCLC
HOP-62 NSCLC = system: HOP-62 NSCLC
COLO 205 colon = system: COLO 205 colon
OVCAR-5 ovarian = system: OVCAR-5 ovarian
IGROV1 ovarian = system: IGROV1 ovarian
HCC-2998 colon = system: HCC-2998 colon
RXF 393 renal = system: RXF 393 renal
CCRF-CEM leukemia = system: CCRF-CEM leukemia
NCI/ADR-RES ovarian = system: NCI/ADR-RES ovarian
MCF7 breast = system: MCF7 breast
SK-OV-3 ovarian = system: SK-OV-3 ovarian
TK-10 renal = system: TK-10 renal
PC-3 prostate = system: PC-3 prostate
SF-268 CNS = system: SF-268 CNS
SN12C renal = system: SN12C renal
SF-539 CNS = system: SF-539 CNS
MDA-MB-231 breast = system: MDA-MB-231 breast
K-562 leukemia = system: K-562 leukemia
HCT-116 colon = system: HCT-116 colon
HOP-92 NSCLC = system: HOP-92 NSCLC

CC1=C(C(=O)Nc2ccc(F)c(Cl)c2)C(c2cccc(Oc3ccccc3)c2)NC(=S)N1 (centres undefined)
GI50 (SK-MEL-28 melanoma): 8.89 µM | TGI (SK-MEL-28 melanoma): 25.9 µM | GI50 (U251 CNS): 9.64 µM | TGI (U251 CNS): 20.2 µM | GI50 (BT-549 breast): 14.1 µM | TGI (BT-549 breast): 32.4 µM | GI50 (UACC-257 melanoma): 13.5 µM | TGI (UACC-257 melanoma): 33.5 µM | GI50 (KM12 colon): 18.8 µM | TGI (KM12 colon): > 50 µM | GI50 (UO-31 renal): 13.3 µM | TGI (UO-31 renal): 44.3 µM | GI50 (T-47D breast): 40.4 µM | TGI (T-47D breast): > 50 µM | GI50 (RPMI-8226 leukemia): 16.8 µM | TGI (RPMI-8226 leukemia): > 50 µM | GI50 (DU-145 prostate): 21.2 µM | TGI (DU-145 prostate): > 50 µM | GI50 (MOLT-4 leukemia): > 50 µM | TGI (MOLT-4 leukemia): > 50 µM | GI50 (786-0 renal): 10.8 µM | TGI (786-0 renal): 21.5 µM | GI50 (SK-MEL-2 melanoma): 9.72 µM | TGI (SK-MEL-2 melanoma): 27.2 µM | GI50 (NCI-H522 lung): 8.57 µM | TGI (NCI-H522 lung): 24.3 µM | GI50 (SK-MEL-5 melanoma): 10.2 µM | TGI (SK-MEL-5 melanoma): 19.6 µM | GI50 (NCI-H460 lung): 13.5 µM | TGI (NCI-H460 lung): 33.6 µM | GI50 (LOX IMVI melanoma): 8.77 µM | TGI (LOX IMVI melanoma): 20.2 µM | GI50 (M14 melanoma): 12 µM | TGI (M14 melanoma): 27.3 µM | GI50 (SW-620 colon): 16.2 µM | TGI (SW-620 colon): 44.2 µM | GI50 (OVCAR-8 ovarian): 11.3 µM | TGI (OVCAR-8 ovarian): 26.9 µM | GI50 (OVCAR-3 ovarian): 11.3 µM | TGI (OVCAR-3 ovarian): 28.6 µM | GI50 (HL-60(TB) leukemia): 17.4 µM | TGI (HL-60(TB) leukemia): > 50 µM | GI50 (NCI-H23 lung): 19.3 µM | TGI (NCI-H23 lung): 39.4 µM | GI50 (SF-295 CNS): 15.6 µM | TGI (SF-295 CNS): > 50 µM | GI50 (SNB-19 CNS): 32.2 µM | TGI (SNB-19 CNS): > 50 µM | GI50 (UACC-62 melanoma): 10 µM | TGI (UACC-62 melanoma): 20.2 µM | GI50 (ACHN renal): 12.3 µM | TGI (ACHN renal): 36.1 µM | GI50 (MDA-MB-435): 11.9 µM | TGI (MDA-MB-435): 33.8 µM | GI50 (SR leukemia): 14.3 µM | TGI (SR leukemia): > 50 µM | GI50 (HCT-15 colon): 11.5 µM | TGI (HCT-15 colon): 33.2 µM | GI50 (CAKI-1 renal): 15.9 µM | TGI (CAKI-1 renal): > 50 µM | GI50 (A549 NSCLC): 13.7 µM | TGI (A549 NSCLC): > 50 µM | GI50 (HS 578T breast): 13.3 µM | TGI (HS 578T breast): 29.2 µM | GI50 (EKVX NSCLC): 14.8 µM | TGI (EKVX NSCLC): 41.5 µM | GI50 (HOP-62 NSCLC): 14.7 µM | TGI (HOP-62 NSCLC): 30.1 µM | GI50 (COLO 205 colon): 17.9 µM | TGI (COLO 205 colon): > 50 µM | GI50 (OVCAR-5 ovarian): 19.2 µM | TGI (OVCAR-5 ovarian): 34.8 µM | GI50 (IGROV1 ovarian): 10.6 µM | TGI (IGROV1 ovarian): 37 µM | GI50 (HCC-2998 colon): 23.8 µM | TGI (HCC-2998 colon): > 50 µM | GI50 (RXF 393 renal): 6.79 µM | TGI (RXF 393 renal): 15.6 µM | GI50 (CCRF-CEM leukemia): 17.7 µM | TGI (CCRF-CEM leukemia): 47.6 µM | GI50 (NCI/ADR-RES ovarian): 27.8 µM | TGI (NCI/ADR-RES ovarian): > 50 µM | GI50 (MCF7 breast): 12.8 µM | TGI (MCF7 breast): > 50 µM | GI50 (SK-OV-3 ovarian): 15.9 µM | TGI (SK-OV-3 ovarian): 43.3 µM | GI50 (TK-10 renal): 16.3 µM | TGI (TK-10 renal): > 50 µM | GI50 (PC-3 prostate): 11.9 µM | TGI (PC-3 prostate): 48.2 µM | GI50 (SF-268 CNS): 10.5 µM | TGI (SF-268 CNS): 24.2 µM | GI50 (SN12C renal): 9.27 µM | TGI (SN12C renal): 17.6 µM | GI50 (SF-539 CNS): 18.7 µM | TGI (SF-539 CNS): 44 µM | GI50 (MDA-MB-231 breast): 10.7 µM | TGI (MDA-MB-231 breast): 22.9 µM | GI50 (K-562 leukemia): 10.7 µM | TGI (K-562 leukemia): 31.6 µM | GI50 (HCT-116 colon): 14.6 µM | TGI (HCT-116 colon): 46.8 µM | GI50 (HOP-92 NSCLC): 21 µM | TGI (HOP-92 NSCLC): > 50 µM
